The test system of series [1] is TGFβ1 induced human monocyte migration. In words: Migration of freshly prepared peripheral blood monocytes, TGFβ1. The class given is cell-based. How it is done: (§1) Agents may also be screened in a chemotactic assay which employs human neutrophils, eosinophils, mast cells, basophils, platelets, lymphocytes or monocytes. For monocytes, 9 mls of fresh blood are transferred to a tube containing 1 ml of 3.8% sodium citrate, and left at room temperature for 15 minutes. Five mls of this anti-coagulated blood are carefully layered over 3.5 ml Polymorphprep® (Nycomed Pharma, Oslo), and centrifuged at 500 g for 35 minutes per the manufacturer's instructions. The top band at the sample/medium interface contains monocytes. The monocytes are carefully removed with a glass pipette, and reconstituted to the original volume (5 ml). The cells are washed with PBS plus 10% fetal calf serum, and centrifuged at 400 g for 10 minutes. The washing step is repeated three times before the cells are counted. Cells are resuspended at 1 × 10^7 cells/ml in RPMI-1640 + 10% fetal calf serum (FCS). The monocytes are cultured for two days at 37°C in a humidified atmosphere of 5% CO2-
(§2) On day 2, the cells are counted, spun down, and reconstituted to 1 × 10^7 cells/ml in Gey's balanced salt solution + 1 mg/ml bovine serum albumin (BSA). […]

Series [2] relates to IL8 induced human monocyte migration. In words: Migration of freshly prepared peripheral blood monocytes, IL8. The class given is cell-based. How it is done:
as §1, §2

Series [3] has as its system THP-1 cells. In words: Agonist activity: agent in the lower compartment of the migration chamber. In kind it is cell-based, human. The source says:
Agents with agonist activity may also be identified using the transwell migration assay, where the cells are placed in the upper compartment (see Figure 1) in the absence of agent, and the agent, e.g. peptide 2[MCP-1], is placed at varying concentrations in the lower compartment in place of the chemokine. […] Preferably, agents having agonist activity also stimulate migration of primary human cells, e.g., monocytes, in a transwell migration assay.
To evaluate the agonist activity ofCRD-Leu4Ile11Cys13 peptide 3(3-12)[MCP-1], CRD-Leu4Ile11Cys13 peptide 3(3-12)[MCP-1] was placed in the lower compartment of the migration chamber at various concentrations and 50,000 THP-1 cells were placed in the upper compartment. The number of cells in the lower compartment after 4 hours was then determined using the vital dye MTT. […] At higher concentrations (1 µM and 10 µM), there may be a small stimulation of migration in this experiment, although the magnitude of this migratory response was less than that seen with 3.25 ng/ml recombinant MCP-1. CRD-Leu4Ile11Cys13 peptide 3(3-12)[MCP-1] is unlikely to have any agonist activity that is significant at concentrations attainable in vivo.

The test system of series [4] is trypsin. In words: Stability against enzymatic destruction. Particulars: 5 units trypsin for 2 hrs at 37°C. The class given is in vitro ADME. The source says:
For example, to prepare a peptide 3 derivative, peptide 3(3-12)[MCP-1] was modified according to Jameson et al. (Nature, 368, 744 (1994)), which yielded CRD-Cys13Leu4Ile11peptide 3(3-12)[MCP-1] (Figure 3).

A short description of series [5]: Modified LD50 technique. In kind it is in vivo, mouse. Particulars: 11 mg i.p.
Series [6] is described as follows: Serum half-life of glucose conjugate after s.c. injection. In kind it is in vivo, rats. Particulars: unmodified peptide, comparison value. How it is done:
To determine whether sugar conjugates of an agent of the invention had increased plasma half-lives, a glucose conjugate of CRD-Leu4Ile11Cys13 peptide 3(3-12)[MCP-1] was prepared and administered to rats. The conjugate was synthesized by mixing D-glucose (50 mM) and CRD-Leu4Ile11Cys13 peptide 3(3-12)[MCP-1] (1 mM) in phosphate buffered saline and incubating at room temperature for 16 hours. The reaction mixture was then subject to analytical HPLC which indicated a yield of about 30%. The material was then treated with cyanoborohydride to effect reduction of the schiffs base linkage and stabilize the glucosides for purification. The stabilized glucosides were then subjected to preparative HPLC and the mono- and di-substituted glucosides prepared separately. The monoglucoside was obtained at >90% purity in approximately 10% yield, and it is likely that the material is a mixture of Lys5-glucoside and Lys-7 glucoside.
The CRD-Leu4Ile11Cys13 peptide 3(3-12)[MCP-1] monoglucoside was injected into 3 rats (5 mg per rat via s.c. route in sterile PBS). Blood samples were withdrawn through an i.v. cannula at various time points, and CRD-Leu4Ile11Cys13 peptide 3(3-12)[MCP-1] glucoside was quantitated in the serum.

Positions of bridges follow the written chain, without caps; N, C: chain ends. Non-standard residues stand in square brackets, D forms with d. Residues, ends and D or L forms follow the SMILES beside them.

As for `CC[C@H](C)[C@H](NC(=O)[C@H](C)NC(=O)[C@H](CC(=O)O)NC(=O)[C@@H]1CCCN1C(=O)[C@H](CCC(N)=O)NC(=O)[C@H](C)N)C(=O)N[C@@H](CC(N)=O)C(=O)N[C@@H](C)C(=O)N1CCC[C@H]1C(=O)N[C@H](C(=O)N[C@H](C(=O)N[C@@H](CS)C(=O)N[C@@H](CS)C(=O)O)[C@@H](C)O)C(C)C` [Peptide 1] (H-AQPDAINAPVTCC-OH; N-terminus and C-terminus assumed), in series [1], the “% inhibition at 100 µM versus TGFβ1” value is “n.s”. Also, the “% inhibition at 100 µM versus IL8” value in series [2] was “n.s”.
Consider `CC[C@@H](C)[C@H]1NC(=O)[C@@H](CCC(N)=O)NC(=O)[C@H](N)CSSC[C@H](C(N)=O)NC(=O)[C@@H](CC(C)C)NC(=O)[C@@H](CC(=O)O)NC(=O)[C@H]2CCCN2C(=O)[C@@H](CCCCN)NC(=O)[C@@H](CCC(N)=O)NC(=O)[C@@H](CCCCN)NC(=O)[C@@H](Cc2c[nH]c3ccccc23)NC1=O` (H-[dC][dQ][dI][dW][dK][dQ][dK][dP][dD][dL][dC]-NH2; disulfide 1-11), for which, in series [3], the “agonist activity (in words)” value is recorded as “No agonist activity was detected”. Further, in series [4], the “stability against enzymatic destruction (in words)” value is “stable”. Further, in series [5], the “lethality after intraperitoneal administration (in words)” value is on record as “did not result in lethality”. In series [6], this compound displayed a T1/2α of 15 min.

Source of the values: patent EP2386565A2, “Compounds and methods to inhibit or augment an inflammatory response” (Cambridge Enterprise Ltd., priority 1999, dated 2000).
